Patent US6525001B1, “Substituted pyrimidine and pyridine herbicides” (Mid-American Commercialization Corporation, priority 1997, dated 2003)

Tests used:
Type in all cases: in vivo
[1] = system: blackgrass (Alopecurus myosuroides); assay: Test B pre-/postemergence; set-up: key: 0 is no effect; 10 is complete control; conditions: for Blackgrass plant response rating: Preemergence
Procedure, shortened: (§1)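 Compounds in a surfactant-containing, non-phytotoxic solvent blend are applied to freshly planted seed (preemergence) and, concurrently, to seedlings of 2 to 18 cm at 1–4 leaves (postemergence). Plants stay in the greenhouse twelve to sixteen days and are then scored visually from 0 (no effect) to 10 (complete control).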

[2] = system: cocklebur (Xanthium strumarium); assay: Test B pre-/postemergence; set-up: key: 0 is no effect; 10 is complete control; conditions: for Cocklebur plant response rating: Preemergence
Procedure, shortened: as §1

corn (Zea mays) = assay: Test B pre-/postemergence; set-up: key: 0 is no effect; 10 is complete control; conditions: for Corn plant response rating: Preemergence
Procedure, shortened: as §1

[3] = system: crabgrass (Digitaria sanguinalis); assay: Test B pre-/postemergence; set-up: key: 0 is no effect; 10 is complete control; conditions: for Crabgrass plant response rating: Preemergence
Procedure, shortened: as §1

[4] = system: pigweed (Amaranthus retroflexus); assay: Test B pre-/postemergence; set-up: key: 0 is no effect; 10 is complete control
Procedure, shortened: as §1

[5] = system: purple nutsedge (Cyperus rotundus); assay: Test B pre-/postemergence; set-up: key: 0 is no effect; 10 is complete control
Procedure, shortened: as §1

rape (Brassica napus) = assay: Test B pre-/postemergence; set-up: key: 0 is no effect; 10 is complete control
Procedure, shortened: as §1

soybean (Glycine max) = assay: Test B pre-/postemergence; set-up: key: 0 is no effect; 10 is complete control
Procedure, shortened: as §1

[6] = system: sugar beet (Beta vulgaris); assay: Test B pre-/postemergence; set-up: key: 0 is no effect; 10 is complete control
Procedure, shortened: as §1

[7] = system: velvetleaf (Abutilon theophrasti); assay: Test B pre-/postemergence; set-up: key: 0 is no effect; 10 is complete control
Procedure, shortened: as §1

[8] = system: wheat (Triticum aestivum); assay: Test B pre-/postemergence; set-up: key: 0 is no effect; 10 is complete control
Procedure, shortened: as §1

[9] = system: bamyardgrass (Echinochloa crus-galli); assay: Test B flood test
Procedure, shortened: (§2)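 Read-out is a visual response score from 0 (no effect) to 10 (complete control), assigned by comparison with untreated controls. Treatment was applied at the 2-leaf stage, and plants stayed in the greenhouse for twelve to sixteen days before scoring.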

[10] = system: duck salad (Heteranthera limosa); assay: Test B flood test
Procedure, shortened: as §2

rice (Oryza sativa) = assay: Test B flood test; conditions: for Rice plant response rating: Rate 125 g/ha, Postemergence section (flood test species)
Procedure, shortened: as §2

[11] = system: smallflower flatsedge (Cyperus difformis); assay: Test B flood test; conditions: for S. Flatsedge plant response rating: Rate 125 g/ha, Postemergence section (flood test species)
Procedure, shortened: as §2

[12] = Rate 250 g/ha, Postemergence (so in the source)
[13] = Rate 62 g/ha, Postemergence (flood test)
[14] = Rate 125 g/ha, Postemergence, flood test
[15] = Rate 250 g/ha, Postemergence (flood test species)

Cc1cnc(-n2ccc(C(F)(F)F)n2)nc1Cc1cccc(OC(F)(F)F)c1 [Compound 42]
5: Plant response rating, Barnyardgrass [9, 15]
8: Plant response rating, Cocklebur [2, 12] | Plant response rating, Corn (corn (Zea mays); Rate 250 g/ha, Postemergence) | Plant response rating, Crabgrass ([3]; Rate 250 g/ha, Postemergence) | Plant response rating, Velvetleaf ([7]; Rate 62 g/ha, Postemergence) | Plant response rating, Ducksalad [10, 14] | Plant response rating, Ducksalad [10, 15]
1: Cocklebur plant response rating ([2]; Rate 62 g/ha) | Corn plant response rating (corn (Zea mays); Rate 125 g/ha) | Wheat plant response rating ([8]; Rate 62 g/ha, Preemergence) | Plant response rating, Ducksalad [10, 13]
2: Plant response rating, Corn (corn (Zea mays); [12]) | Plant response rating, Nutsedge ([5]; Rate 250 g/ha, Postemergence) | Soybean plant response rating (soybean (Glycine max); Rate 62 g/ha, Preemergence) | Wheat plant response rating ([8]; Rate 62 g/ha, Postemergence) | Plant response rating, Wheat ([8]; Rate 125 g/ha, Preemergence)
6: Plant response rating, Blackgrass ([1]; Rate 62 g/ha, Postemergence) | Blackgrass plant response rating ([1]; Rate 62 g/ha) | Rice plant response rating (rice (Oryza sativa)) | Plant response rating, Rice (rice (Oryza sativa); [15])
0: Corn plant response rating (corn (Zea mays); Rate 62 g/ha) | Plant response rating, Nutsedge ([5]; Rate 62 g/ha, Postemergence) | Nutsedge plant response rating ([5]; Rate 62 g/ha, Preemergence) | Nutsedge plant response rating ([5]; Rate 125 g/ha, Postemergence) | Plant response rating, Nutsedge [5, 12]
3: Cocklebur plant response rating ([2]; Rate 125 g/ha) | Plant response rating, Corn (corn (Zea mays); Rate 62 g/ha, Postemergence) | Plant response rating, Corn (corn (Zea mays); Rate 125 g/ha, Postemergence) | Wheat plant response rating ([8]; Rate 125 g/ha, Postemergence)
4: Plant response rating, Crabgrass ([3]; Rate 62 g/ha, Postemergence) | Plant response rating, Soybean (soybean (Glycine max); Rate 125 g/ha, Preemergence) | Plant response rating, Soybean (soybean (Glycine max); [12]) | Plant response rating, Wheat ([8]; Rate 250 g/ha, Postemergence) | Plant response rating, Wheat [8, 12] | Plant response rating, Barnyardgrass [9, 13] | Plant response rating, Barnyardgrass [9, 14] | Plant response rating, Rice (rice (Oryza sativa); [13])
9: Plant response rating, Cocklebur ([2]; Rate 62 g/ha, Postemergence) | Plant response rating, Cocklebur ([2]; Rate 125 g/ha, Postemergence) | Plant response rating, Cocklebur ([2]; Rate 250 g/ha, Postemergence) | Crabgrass plant response rating ([3]; Rate 62 g/ha) | Plant response rating, Redroot pigweed ([4]; Rate 62 g/ha, Postemergence) | Redroot pigweed plant response rating ([4]; Rate 62 g/ha, Preemergence) | Redroot pigweed plant response rating ([4]; Rate 125 g/ha, Postemergence) | Plant response rating, Redroot pigweed ([4]; Rate 250 g/ha, Postemergence) | Plant response rating, Soybean (soybean (Glycine max); Rate 62 g/ha, Postemergence) | Soybean plant response rating (soybean (Glycine max); Rate 125 g/ha, Postemergence) | Plant response rating, Soybean (soybean (Glycine max); Rate 250 g/ha, Postemergence) | Velvetleaf plant response rating ([7]; Rate 125 g/ha, Postemergence) | Plant response rating, Velvetleaf ([7]; Rate 250 g/ha, Postemergence) | Plant response rating, S. Flatsedge [11, 13] | S. Flatsedge plant response rating [11] | Plant response rating, S. Flatsedge [11, 15]
10: Blackgrass plant response rating ([1]; Rate 125 g/ha) | Plant response rating, Blackgrass [1, 12] | Crabgrass plant response rating ([3]; Rate 125 g/ha) | Plant response rating, Crabgrass [3, 12] | Redroot pigweed plant response rating ([4]; Rate 125 g/ha, Preemergence) | Plant response rating, Redroot pigweed [4, 12] | Plant response rating, Rape (rape (Brassica napus); Rate 62 g/ha, Postemergence) | Rape plant response rating (rape (Brassica napus); Rate 125 g/ha, Postemergence) | Rape plant response rating (rape (Brassica napus); Rate 125 g/ha, Preemergence) | Plant response rating, Rape (rape (Brassica napus); Rate 250 g/ha, Postemergence) | Plant response rating, Rape (rape (Brassica napus); [12]) | Plant response rating, Sugarbeets ([6]; Rate 62 g/ha, Postemergence) | Sugarbeets plant response rating ([6]; Rate 62 g/ha, Preemergence) | Sugarbeets plant response rating ([6]; Rate 125 g/ha, Postemergence) | Plant response rating, Sugarbeets ([6]; Rate 125 g/ha, Preemergence) | Plant response rating, Sugarbeets ([6]; Rate 250 g/ha, Postemergence) | Plant response rating, Sugarbeets [6, 12] | Velvetleaf plant response rating ([7]; Rate 62 g/ha, Preemergence) | Plant response rating, Velvetleaf [7, 12]
7: Plant response rating, Blackgrass ([1]; Rate 125 g/ha, Postemergence) | Plant response rating, Blackgrass ([1]; Rate 250 g/ha, Postemergence) | Plant response rating, Crabgrass ([3]; Rate 125 g/ha, Postemergence) | Rape plant response rating (rape (Brassica napus); Rate 62 g/ha, Preemergence) | Plant response rating, Velvetleaf ([7]; Rate 125 g/ha, Preemergence)

Cc1cnc(-n2cnc(C(F)(F)F)n2)nc1Cc1cccc(C(F)(F)F)c1 [Compound 43]
4: Plant response rating, Corn (corn (Zea mays); Rate 125 g/ha, Postemergence) | Wheat plant response rating ([8]; Rate 125 g/ha, Postemergence) | Plant response rating, Barnyardgrass [9, 13] | Plant response rating, Barnyardgrass [9, 14] | Plant response rating, Rice (rice (Oryza sativa); [13])
0: Plant response rating, Nutsedge ([5]; Rate 62 g/ha, Postemergence) | Nutsedge plant response rating ([5]; Rate 62 g/ha, Preemergence) | Nutsedge plant response rating ([5]; Rate 125 g/ha, Preemergence)
2: Blackgrass plant response rating ([1]; Rate 62 g/ha) | Cocklebur plant response rating ([2]; Rate 125 g/ha) | Plant response rating, Cocklebur [2, 12] | Nutsedge plant response rating ([5]; Rate 125 g/ha, Postemergence) | Wheat plant response rating ([8]; Rate 62 g/ha, Preemergence) | Plant response rating, Wheat ([8]; Rate 125 g/ha, Preemergence) | Plant response rating, Wheat [8, 12]
3: Plant response rating, Corn (corn (Zea mays); Rate 62 g/ha, Postemergence) | Plant response rating, Nutsedge ([5]; Rate 250 g/ha, Postemergence) | Wheat plant response rating ([8]; Rate 62 g/ha, Postemergence)
7: Plant response rating, Cocklebur ([2]; Rate 125 g/ha, Postemergence) | Plant response rating, Crabgrass ([3]; Rate 62 g/ha, Postemergence) | Plant response rating, Soybean (soybean (Glycine max); [12]) | Plant response rating, Rice (rice (Oryza sativa); [15])
10: Crabgrass plant response rating ([3]; Rate 125 g/ha) | Plant response rating, Crabgrass ([3]; Rate 250 g/ha, Postemergence) | Plant response rating, Crabgrass [3, 12] | Plant response rating, Redroot pigweed ([4]; Rate 62 g/ha, Postemergence) | Redroot pigweed plant response rating ([4]; Rate 62 g/ha, Preemergence) | Redroot pigweed plant response rating ([4]; Rate 125 g/ha, Postemergence) | Redroot pigweed plant response rating ([4]; Rate 125 g/ha, Preemergence) | Plant response rating, Redroot pigweed ([4]; Rate 250 g/ha, Postemergence) | Plant response rating, Redroot pigweed [4, 12] | Rape plant response rating (rape (Brassica napus); Rate 125 g/ha, Postemergence) | Rape plant response rating (rape (Brassica napus); Rate 125 g/ha, Preemergence) | Plant response rating, Rape (rape (Brassica napus); Rate 250 g/ha, Postemergence) | Plant response rating, Rape (rape (Brassica napus); [12]) | Plant response rating, Sugarbeets ([6]; Rate 62 g/ha, Postemergence) | Sugarbeets plant response rating ([6]; Rate 62 g/ha, Preemergence) | Sugarbeets plant response rating ([6]; Rate 125 g/ha, Postemergence) | Plant response rating, Sugarbeets ([6]; Rate 125 g/ha, Preemergence) | Plant response rating, Sugarbeets ([6]; Rate 250 g/ha, Postemergence) | Plant response rating, Sugarbeets [6, 12] | Velvetleaf plant response rating ([7]; Rate 62 g/ha, Preemergence) | Plant response rating, Velvetleaf ([7]; Rate 125 g/ha, Preemergence) | Plant response rating, Velvetleaf [7, 12]
9: Plant response rating, Cocklebur ([2]; Rate 250 g/ha, Postemergence) | Plant response rating, Rape (rape (Brassica napus); Rate 62 g/ha, Postemergence) | Soybean plant response rating (soybean (Glycine max); Rate 125 g/ha, Postemergence) | Plant response rating, Soybean (soybean (Glycine max); Rate 250 g/ha, Postemergence) | Velvetleaf plant response rating ([7]; Rate 125 g/ha, Postemergence) | Plant response rating, Velvetleaf ([7]; Rate 250 g/ha, Postemergence) | Plant response rating, Ducksalad [10, 14] | Plant response rating, Ducksalad [10, 15] | Plant response rating, S. Flatsedge [11, 13] | S. Flatsedge plant response rating [11] | Plant response rating, S. Flatsedge [11, 15]
1: Cocklebur plant response rating ([2]; Rate 62 g/ha) | Corn plant response rating (corn (Zea mays); Rate 62 g/ha) | Corn plant response rating (corn (Zea mays); Rate 125 g/ha) | Plant response rating, Corn (corn (Zea mays); [12]) | Soybean plant response rating (soybean (Glycine max); Rate 62 g/ha, Preemergence)
5: Plant response rating, Blackgrass ([1]; Rate 62 g/ha, Postemergence) | Blackgrass plant response rating ([1]; Rate 125 g/ha) | Plant response rating, Corn (corn (Zea mays); Rate 250 g/ha, Postemergence) | Plant response rating, Soybean (soybean (Glycine max); Rate 125 g/ha, Preemergence) | Plant response rating, Wheat ([8]; Rate 250 g/ha, Postemergence) | Plant response rating, Barnyardgrass [9, 15]
6: Plant response rating, Blackgrass ([1]; Rate 125 g/ha, Postemergence) | Rice plant response rating (rice (Oryza sativa))
8: Plant response rating, Blackgrass ([1]; Rate 250 g/ha, Postemergence) | Plant response rating, Blackgrass [1, 12] | Crabgrass plant response rating ([3]; Rate 62 g/ha) | Plant response rating, Crabgrass ([3]; Rate 125 g/ha, Postemergence) | Rape plant response rating (rape (Brassica napus); Rate 62 g/ha, Preemergence) | Plant response rating, Soybean (soybean (Glycine max); Rate 62 g/ha, Postemergence) | Plant response rating, Velvetleaf ([7]; Rate 62 g/ha, Postemergence) | Plant response rating, Ducksalad [10, 13]
